The text below walks through data of ChEMBL document CHEMBL5230124, “Advances of CCR5 antagonists: From small molecules to macromolecules” (Eur J Med Chem, 2020).

In brackets after ≈: the same amount, converted by molar mass.

Data set [1] is described as follows: Antifertility activity against human Spermatozoa assessed as decrease in sperm motility for 120 mins by hematocytometer analysis. Format: functional, cell-based.
A short description of data set [2]: Half life in human plasma. Format: ADME, cell-free.
The nature of data set [3]: Terminal half life in Wistar rat at 10 mg/kg, IM administered as H3-lableled compound by scintillation counting method. Type of data set: ADME, organism-based. Conditions: in vivo.
Data set [4] can be described thus: AUC in Wistar rat at 10 mg/kg, IM administered as H3-lableled compound by scintillation counting method. Type of data set: ADME, organism-based. Details: dose 10 mg/kg, route im. The conditions noted are these: in vivo.

In the case of `CCN(Cc1ccccc1)C(=O)C1CCN(CCCN(C(=O)C2CCN(C(C)=O)CC2)c2ccc(C)c(Cl)c2)CC1`, the EC50 in data set [1] is 1500 µg/mL (≈ 2580 µM). `CCCCOCCOc1ccc(-c2ccc3c(c2)/C=C(/C(=O)Nc2ccc([S@@+]([O-])Cc4cncn4CCC)cc2)CCCN3CC(C)C)cc1` [CENICRIVIROC]: in data set [2], the half-life was 30 h. Take `Cc1nnc(C(C)C)n1[C@H]1C[C@H]2CC[C@@H](C1)N2CC[C@H](NC(=O)C1CCC(F)(F)CC1)c1ccccc1` [MARAVIROC]: the “beta t1/2” value in data set [3] was 53.23 h. In data set [4], this compound returned an AUC of 567.17 ng·h/mL.
